This assay addresses T1, CXCR7 (Homo sapiens, UniProt P25106).
T1 construct: host or cells: CHO-K1 (PathHunter CHO-K1 CXCR7 b-arrestin cell line, stably transfected)
As to the kind of experiment: PathHunter CHO-K1 CXCR7 b-arrestin recruitment assay (CXCR7 agonistic activity). In kind it is cell-based. Conditions: PathHunter CHO-K1 CXCR7 b-arrestin cell line. In short, it runs like this: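 Stable CHO-K1 line with C-terminally ProLink-tagged CXCR7 and β-arrestin 2–EA fusion; β-arrestin recruitment restores β-gal activity, read by chemiluminescence after 1 h RT detection. Cells seeded 24 h, starved in OPTIMEM 3–4 h, exposed to compounds 90 min at 37 °C in HBSS/HEPES/BSA. Geometric-mean EC50 from repeated measurements.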
Background: Arrestin recruitment assays detect the binding of arrestin to an activated receptor.

Usually EC50 stands for the concentration that produces a half-maximal response. High values mean weaker potency, low ones greater potency.

Counter-ions that a name gives are not always drawn.

T1 sequence (P25106 whole entry): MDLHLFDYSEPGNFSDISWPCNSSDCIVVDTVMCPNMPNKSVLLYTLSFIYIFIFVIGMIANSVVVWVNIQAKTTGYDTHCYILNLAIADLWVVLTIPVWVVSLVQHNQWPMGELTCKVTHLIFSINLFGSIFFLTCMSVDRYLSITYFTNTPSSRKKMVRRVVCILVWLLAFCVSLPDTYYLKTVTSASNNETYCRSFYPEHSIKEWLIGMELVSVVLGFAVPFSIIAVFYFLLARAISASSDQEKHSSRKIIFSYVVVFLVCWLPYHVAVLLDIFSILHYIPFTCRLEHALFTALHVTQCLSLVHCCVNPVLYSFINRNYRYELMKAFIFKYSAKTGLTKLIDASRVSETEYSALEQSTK
T1 sequence (P32121 whole entry partner): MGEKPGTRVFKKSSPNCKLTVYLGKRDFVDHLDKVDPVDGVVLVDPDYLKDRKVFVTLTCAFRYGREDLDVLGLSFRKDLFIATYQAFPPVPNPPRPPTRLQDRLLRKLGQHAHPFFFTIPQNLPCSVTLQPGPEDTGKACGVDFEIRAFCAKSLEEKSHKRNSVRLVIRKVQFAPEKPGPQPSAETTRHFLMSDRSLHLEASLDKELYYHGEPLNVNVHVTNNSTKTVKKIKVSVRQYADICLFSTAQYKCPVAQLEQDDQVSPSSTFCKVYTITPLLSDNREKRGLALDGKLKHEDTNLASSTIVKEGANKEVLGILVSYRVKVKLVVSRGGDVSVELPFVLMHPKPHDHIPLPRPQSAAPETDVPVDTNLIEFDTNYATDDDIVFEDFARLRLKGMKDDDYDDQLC

`CN(C)CCN(Cc1ccccc1C(F)(F)F)C(=O)CNc1cccc2c1CCN(c1ccccc1)C2` [Example 373, N-(2-Dimethylamino-ethyl)-2-(2-phenyl-1,2,3,4-tetrahydro-isoquinolin-5-ylamino)-N-(2-trifluoromethyl-benzyl)-acetamide] showed an EC50 of 67 nM. `COCCN1CCc2c(cccc2NCC(=O)N(CCC(C)(C)O)Cc2ccccc2C(F)(F)F)C1` [Example 304, N-(3-Hydroxy-3-methyl-butyl)-2-[2-(2-methoxy-ethyl)-1,2,3,4-tetrahydro-isoquinolin-5-ylamino]-N-(2-trifluoromethyl-benzyl)-acetamide]: it took 311 nM to reach a half-maximal effect (EC50). Under `CN(C)CCN(Cc1ncccc1C(F)(F)F)C(=O)CNc1cccc2c1CCN(CC1CCC1)C2` [Example 368, 2-(2-Cyclobutylmethyl-1,2,3,4-tetrahydro-isoquinolin-5-ylamino)-N-(2-dimethylamino-ethyl)-N-(3-trifluoromethyl-pyridin-2-ylmethyl)-acetamide] stands 3 nM. The value for `CN(C)CCN(Cc1ncccc1Br)C(=O)CNc1cccc2c1CN(C(=O)[C@H]1C[C@H]1F)CC2` (relative stereo) [compound 460] was 85 nM; that for `CC(C)(O)CN(Cc1ncccc1Br)C(=O)CNc1cccc2c1C(C)(C)CN(CC1CC1)C2` [Example 576, N-(3-Bromo-pyridin-2-ylmethyl)-2-(2-cyclopropylmethyl-4,4-dimethyl-1,2,3,4-tetrahydro-isoquinolin-5-ylamino)-N-(2-hydroxy-2-methyl-propyl)-acetamide] was 6 nM. `CCN1CCc2cccc(NCC(=O)N(CCN3CCCC3)Cc3ccccc3C(F)(F)F)c2C1` [compound 489, 2-(2-Ethyl-1,2,3,4-tetrahydro-isoquinolin-8-ylamino)-N-(2-pyrrolidin-1-yl-ethyl)-N-(2-trifluoromethyl-benzyl)-acetamide] yielded an EC50 of 7 nM. Compound `CN(C)CCN(CCc1ccc(C(F)(F)F)cc1)C(=O)CNc1cccc2c1CCN(CC1CC1)C2` [Example 56, 2-(2-Cyclopropylmethyl-1,2,3,4-tetrahydro-isoquinolin-5-ylamino)-N-(2-dimethylamino-ethyl)-N-[2-(4-trifluoromethyl-phenyl)-ethyl]-acetamide] gave an EC50 of 70 nM. Regarding `CN(C)CCN(Cc1ccccc1C(F)(F)F)C(=O)CNc1cccc2c1CN(CC(C)(C)C)CC2` [compound 563, N-(2-Dimethylamino-ethyl)-2-[2-(2,2-dimethyl-propyl)-1,2,3,4-tetrahydro-isoquinolin-8-ylamino]-N-(2-trifluoromethyl-benzyl)-acetamide], it took 26 nM to reach a half-maximal effect (EC50). Under `CN(C)CCN(Cc1ccccn1)C(=O)CNc1cccc2c1CCN(CC1CC1)C2` [Example 257, 2-(2-Cyclopropylmethyl-1,2,3,4-tetrahydro-isoquinolin-5-ylamino)-N-(2-dimethylamino-ethyl)-N-pyridin-2-ylmethyl-acetamide] stands 29 nM; under `CNCCN(Cc1ncccc1C(F)(F)F)C(=O)CNc1cccc2c1CCN(C(=O)C1CCOC1)C2` (racemic) [compound 417], 15 nM.

In turn, `COCCN1CCc2c(CCC(=O)N(Cc3ccccc3C(F)(F)F)CC(C)(C)O)cccc2C1` [Example 341, N-(2-Hydroxy-2-methyl-propyl)-3-[2-(2-methoxy-ethyl)-1,2,3,4-tetrahydro-isoquinolin-5-yl]-N-(2-trifluoromethyl-benzyl)-propionamide] showed an EC50 of 397 nM. Turning to `CCN(CC)CCN(Cc1ccccc1C(F)(F)F)C(=O)CNc1cccc2c1CN(CC)CC2` [compound 514, N-(2-Diethylamino-ethyl)-2-(2-ethyl-1,2,3,4-tetrahydro-isoquinolin-8-ylamino)-N-(2-trifluoromethyl-benzyl)-acetamide], the EC50 was found to be 6 nM. `O=C(CNc1cccc2c1CCN(CC1CC1)C2)N(CCN1CCCC(F)(F)C1)Cc1ccccc1C(F)(F)F` [Example 281, 2-(2-Cyclopropylmethyl-1,2,3,4-tetrahydro-isoquinolin-5-ylamino)-N-[2-(3,3-difluoro-piperidin-1-yl)-ethyl]-N-(2-trifluoromethyl-benzyl)-acetamide] came in with an EC50 of 43 nM. For the compound `CCN1CCc2cccc(NCC(=O)N(CCN(C)C)Cc3ncccc3C)c2C1` [compound 525, N-(2-Dimethylamino-ethyl)-2-(2-ethyl-1,2,3,4-tetrahydro-isoquinolin-8-ylamino)-N-(3-methyl-pyridin-2-ylmethyl)-acetamide], the EC50 is 41 nM. The value for `O=C(CNc1cccc2c1CN(CC1CC1)CC2)N(CCN1CCC(F)(F)C1)Cc1ncccc1C(F)(F)F` [compound 481, 2-(2-Cyclopropylmethyl-1,2,3,4-tetrahydro-isoquinolin-8-ylamino)-N-[2-(3,3-difluoro-pyrrolidin-1-yl)-ethyl]-N-(3-trifluoromethyl-pyridin-2-ylmethyl)-acetamide] was 41 nM; that for `CCC(=O)N1CCc2c(cccc2NCC(=O)N(CCN(C)C)Cc2ccccc2)C1` [compound 111, N-Benzyl-N-(2-dimethylamino-ethyl)-2-(2-propionyl-1,2,3,4-tetrahydro-isoquinolin-5-ylamino)-acetamide] was 32 nM; that for `CCC(=O)N1CCc2c(cccc2NCC(=O)N(CCN(C)C)Cc2ccc(C(F)(F)F)cc2)C1` [Example 34, N-(2-Dimethylamino-ethyl)-2-(2-propionyl-1,2,3,4-tetrahydro-isoquinolin-5-ylamino)-N-(4-trifluoromethyl-benzyl)-acetamide] was 132 nM.

For the compound “2-(2-Cyclopropylmethyl-1,2,3,4-tetrahydro-isoquinolin-5-ylamino)-N-(2-dimethylamino-ethyl)-N-pyridin-3-ylmethyl-acetamide [Example 263]”, the EC50 stood at 127 nM. The value for `O=C(CNc1cccc2c1CCN(CC1CC1)C2)N(CCN1CCC(F)(F)CC1)Cc1ccccc1C(F)(F)F` [Example 277, 2-(2-Cyclopropylmethyl-1,2,3,4-tetrahydro-isoquinolin-5-ylamino)-N-[2-(4,4-difluoro-piperidin-1-yl)-ethyl]-N-(2-trifluoromethyl-benzyl)-acetamide] was 28 nM. Under `O=C(CNc1cccc2c1CCN(CC1CC1)C2)N(Cc1ccccc1C(F)(F)F)C[C@H]1CCNC1` [compound 380] stands 6 nM; under `NC(=O)CCN(Cc1ccccc1)C(=O)/C=C/c1cccc2c1CCN(CC1CC1)C2` [Example 140, (E)-N-Benzyl-N-(2-carbamoyl-ethyl)-3-(2-cyclopropylmethyl-1,2,3,4-tetrahydro-isoquinolin-5-yl)-acrylamide dihydrochloride], 54 nM; under `CC(C)(C)OC(=O)NCCN(Cc1ccccc1C(F)(F)F)C(=O)CNc1cccc2c1CCN(CC1CC1)C2` [Example 273, {2-[[2-(2-Cyclopropylmethyl-1,2,3,4-tetrahydro-isoquinolin-5-ylamino)-acetyl]-(2-trifluoromethyl-benzyl)-amino]-ethyl}-carbamic acid tert-butyl ester], 144 nM. Take `O=C(CNc1cccc2c1CCN(CC1CC1)C2)N(CCCN1CCCC1)Cc1ccccc1C(F)(F)F` [Example 214, 2-(2-Cyclopropylmethyl-1,2,3,4-tetrahydro-isoquinolin-5-ylamino)-N-(3-pyrrolidin-1-yl-propyl)-N-(2-trifluoromethyl-benzyl)-acetamide]: it took 3 nM to reach a half-maximal effect (EC50).

Values taken from patent US9920010B2, “CXCR7 receptor modulators” (IDORSIA PHARMACEUTICALS LTD, priority 2013, dated 2018).
